From US7915293B2, “Ubiquitin ligase inhibitors” (Rigel Pharmaceuticals, Inc., priority 2003, dated 2011)

Assays:
Parameters in all cases: key: “+” indicates that the compound exibits inhibitory activity; “−” indicates that low or no inhibitory activity was observed
HeLa cells = test: Cell proliferation assay, photographic image analysis of proliferation, apoptosis and death (PAD assay), HeLa; format: cell-based; conditions: 6 concentrations tested
Method: (§1) A549 (ATCC# CCL-185), HeLa (ATCC# CCL-2), HCT116 (ATCC# CCL-247), and H1299 (ATCC# CRL-5803) cells were maintained in T175 flasks following the ATCC recommended media and handling procedures. Flasks reaching approximately 70% confluency were trypsinized and resuspended in RPMI media (Cell-Gro catalog number 10-040-CM) modified to contain 5% FBS, 100 ug/mlPen/Strep (Cell-Gro catalog number 30-002-CL), and 0.3 mg/ml L-Glutamine (Cell-Gro catalog number 25-003-CL). A 20,000 cells/ml solution was made for plating. Cells were plated in black Packard 96 well plates by placing 100 μl per well (2,000 cells per well).
(§2) Compounds and additional media were added 24 hours after cell plating. A compound master plate was created with concentrations 500 times greater than the final concentration added to the cells. All compound testing was done in duplicate using 6.3 fold dilutions starting with 10 mM. All outside wells (and 4 internal wells) were DMSO controls. Taxol and at least one additional control were run on all plates. Three microliters of the compound master plate were added to deep well blocks containing 750 μl of RPMI media. One hundred microliters were transferred from the compound/media deep well blocks to the plated cells resulting in a 500 fold dilution of the compounds. Cells were grown at 37° C., 5% CO2 for 48 hours.
(§3) Cells to be analyzed by photography were fixed and stained. One hundred microliters of media were removed and 100 μl of 9.3% […] was added to each well. Plates were left on the benchtop for 45 minutes. A staining solution containing 1.55 μl of 1 mg/ml DAPI added to 18.75 ml PBS was warmed for 15 minutes at 37° C. The cells were aspirated prior to washing with 100 μl of PBS. Seventy microliters of PBS were aspirated and 170 μl of the DAPI solution were added to each well of fixed cells. Plates were left at room temperature for one hour then aspirated and washed twice with 100 μl of PBS. The stained cells were left at 4° C. for a minimum of 16 hours before photographic analysis with Array Scan II (Cellomics). Analysis of the photographic images to determine numbers of live cells (proliferation), apoptotic cells and dead cells, were according to the methods described in U.S. Provisional Patent Application Ser. No. 60/406,714, which incorporated herein in its entirety.

A549 cells = test: Cell proliferation assay, photographic image analysis of proliferation, apoptosis and death (PAD assay), A549; format: cell-based; conditions: 6 concentrations tested
Method: as §1, §2, §3

[1] = target: E3 (His-APC11/APC2-"APC") (Homo sapiens, UniProt Q9NYG5+Q9UJX6); test: Plate-based E3 ligase assay (APC FLAG), auto-ubiquitination; format: biochemical; conditions: 8 concentrations tested
Sequence of E3 (His-APC11/APC2-"APC") (Q9NYG5 whole entry): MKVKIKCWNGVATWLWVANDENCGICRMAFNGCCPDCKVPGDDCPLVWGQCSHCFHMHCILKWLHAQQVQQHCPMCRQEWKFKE
Sequence of E3 (His-APC11/APC2-"APC") (Q9UJX6 whole entry): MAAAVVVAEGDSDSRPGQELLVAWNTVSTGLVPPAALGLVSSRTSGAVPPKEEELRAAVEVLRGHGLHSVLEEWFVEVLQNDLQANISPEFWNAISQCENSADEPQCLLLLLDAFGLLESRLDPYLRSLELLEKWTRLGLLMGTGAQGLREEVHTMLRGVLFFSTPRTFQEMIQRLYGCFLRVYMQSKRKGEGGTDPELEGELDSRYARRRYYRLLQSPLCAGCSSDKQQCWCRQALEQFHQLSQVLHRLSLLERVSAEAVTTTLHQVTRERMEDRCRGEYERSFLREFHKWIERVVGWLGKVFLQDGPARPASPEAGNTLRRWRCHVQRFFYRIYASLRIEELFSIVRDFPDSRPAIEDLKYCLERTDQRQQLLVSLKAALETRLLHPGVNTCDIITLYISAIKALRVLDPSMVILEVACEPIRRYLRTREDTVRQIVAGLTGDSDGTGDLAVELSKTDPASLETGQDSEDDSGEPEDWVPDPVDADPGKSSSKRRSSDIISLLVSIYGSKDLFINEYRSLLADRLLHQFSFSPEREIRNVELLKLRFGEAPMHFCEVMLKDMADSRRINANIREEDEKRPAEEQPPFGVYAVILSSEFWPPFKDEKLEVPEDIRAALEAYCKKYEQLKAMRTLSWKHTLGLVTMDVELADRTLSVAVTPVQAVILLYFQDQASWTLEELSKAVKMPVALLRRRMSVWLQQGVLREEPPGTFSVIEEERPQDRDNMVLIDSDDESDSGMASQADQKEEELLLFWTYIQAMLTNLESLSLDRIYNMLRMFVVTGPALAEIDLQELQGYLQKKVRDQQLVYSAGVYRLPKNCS
Procedure, shortened: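 His-APC11/APC2 auto-ubiquitination was run in casein-blocked nickel plates for 1 h at room temperature, with E1 at 5 ng/well, UbcH5c at 20 ng/well and APC at 100 ng/well. Buffer was 62.5 mM Tris pH 7.6, 3 mM MgCl2, 1 mM DTT, 2.5 mM ATP and Flag-ubiquitin at 100 ng/well. Detection used anti-Flag/HRP chemiluminescence, and IC50 was typically from 6 or 8 concentrations versus a DMSO control.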

Structure (SMILES)	APC Flag 8 pt [1]	PAD Assay, HELA 6 pt (HeLa cells)	PAD Assay, A549 6 pt (A549 cells)
Cc1cc2cc(NS(=O)(=O)c3cc(Cl)c(Oc4ccc([N+](=O)[O-])cc4Cl)c(Cl)c3)ccc2[nH]1 [Compound 244, 3,5-dichloro-4-(2-chloro-4-nitrophenoxy)-N-(2-methyl-1H-indol-5-yl)benzene sulfonamide]	+	+	+
O=S(=O)(Nc1cc(Cl)cnc1Cl)c1ccc(Oc2ncc(C(F)(F)F)cc2Cl)cc1 [Compound 257, 4-{[3-chloro-5-(trifluoromethyl)pyridin-2-yl]oxy}-N-(2,5-dichloropyridin-3-yl) benzenesulfonamide]	+	+	+
O=S(=O)(Nc1c(F)cccc1F)c1ccc(Oc2ncc(C(F)(F)F)cc2Cl)cc1 [Compound 259, 4-{[3-chloro-5-(trifluoromethy)pyridin-2-yl]oxy}-N-(2,6-difluorophenyl)benzene sulfonamide]	+	−	−
O=[N+]([O-])c1ccc(Oc2ccc(S(=O)(=O)Nc3ccc(C(F)(F)F)cc3Cl)cc2Cl)c(C(F)(F)F)c1 [Compound 265, 3-chloro-N-[2-chloro-4-(trifluoromethyl)phenyl]-4-[4-nitro-2-(trifluoromethyl)phenoxy]benzenesulfonamide]	+	+	+

More lines, main results first:

APC Flag 8 pt [1]	Structure (SMILES)	PAD Assay, HELA 6 pt (HeLa cells)	PAD Assay, A549 6 pt (A549 cells)
+	O=[N+]([O-])c1ccc(Oc2ccc(S(=O)(=O)Nc3cc(Cl)ccc3C(F)(F)F)cc2Cl)c(C(F)(F)F)c1 [Compound 267, 3-chloro-N-[5-chloro-2-(trifluoromethyl)phenyl]-4-[4-nitro-2-(trifluoromethyl)phenoxy]benzenesulfonamide]	+	+
+	O=S(=O)(Nc1cc(Cl)ccc1C(F)(F)F)c1ccc(Oc2ncc(C(F)(F)F)cc2Cl)cc1 [Compound 272, N-[5-chloro-2-(trifluoromethyl)phenyl]-4-{[3-chloro-5-(trifluoromethyl)pyridin-2-yl]oxy}benzenesulfonamide]	+	+
+	O=[N+]([O-])c1ccc(Oc2ccc(NS(=O)(=O)c3cc(Cl)ccc3Cl)cc2)cc1 [Compound 273, 2,5-dichloro-N-[4-(4-nitrophenoxy)phenyl]benzenesulfonamide]	−	+
+	O=S(=O)(Nc1ccc(Oc2ccc(F)cc2)c(Br)c1)c1cccc(Cl)c1 [Compound 282, N-[3-bromo-4-(4-fluorophenoxy)phenyl]-3-chlorobenzenesulfonamide]	−	+
+	COc1ccc(S(=O)(=O)Nc2ccc(Oc3cc(C(F)(F)F)ccc3Cl)cc2F)cc1 [Compound 287, N-{4-[2-chloro-5-(trifluoromethyl)phenoxy]-2-fluorophenyl}-4-methoxybenzenesulfonamide]	+	+
−	O=C(Nc1ccc(Oc2ccc(F)cc2)c(Br)c1)c1cccc(Cl)c1 [Compound 303]	+	+
+	O=C(Nc1cccc(Cl)c1)Nc1ccc(Oc2ccc(F)cc2)c(Br)c1 [Compound 304]	+	+
